Data: ChEMBL document CHEMBL4715697, “Synthesis and biological activity of benzamide DNA minor groove binders” (2016)

Tests used:
Format in all cases: functional
SNB-19 [1] = assay: Growth inhibition of human SNB-19 cells assessed as cell growth at 100 uM incubated for 48 hrs by sulforhodamine B assay relative to control; settings: read-out: Activity
SNB-75 [2] = assay: Growth inhibition of human SNB-75 cells assessed as cell growth at 0.1 uM incubated for 48 hrs by sulforhodamine B assay relative to control; settings: read-out: Activity
Malme-3M [3] = assay: Growth inhibition of human Malme-3M cells assessed as cell growth at 0.1 uM incubated for 48 hrs by sulforhodamine B assay relative to control; settings: read-out: Activity
SK-MEL-5 [4] = assay: Growth inhibition of human SK-MEL-5 cells assessed as cell growth at 100 uM incubated for 48 hrs by sulforhodamine B assay relative to control; settings: read-out: Activity
KM12 = assay: Growth inhibition of human KM12 cells assessed as cell growth at 1 uM incubated for 48 hrs by sulforhodamine B assay relative to control; settings: read-out: Activity
OVCAR-5 [5] = assay: Growth inhibition of human OVCAR-5 cells assessed as cell growth at 1 uM incubated for 48 hrs by sulforhodamine B assay relative to control; settings: read-out: Activity
PC-3 = assay: Growth inhibition of human PC-3 cells assessed as cell growth at 0.01 uM incubated for 48 hrs by sulforhodamine B assay relative to control; settings: read-out: Activity
MOLT-4 = assay: Growth inhibition of human MOLT-4 cells assessed as cell growth at 100 uM incubated for 48 hrs by sulforhodamine B assay relative to control; settings: read-out: Activity
OVCAR-8 [6] = assay: Growth inhibition of human OVCAR-8 cells assessed as cell growth at 1 uM incubated for 48 hrs by sulforhodamine B assay relative to control; settings: read-out: Activity
MDA-MB-468 = assay: Growth inhibition of human MDA-MB-468 cells incubated for 48 hrs by sulforhodamine B assay
TK-10 = assay: Growth inhibition of human TK-10 cells incubated for 48 hrs by sulforhodamine B assay
UACC-257 = assay: Growth inhibition of human UACC-257 cells assessed as cell growth at 0.01 uM incubated for 48 hrs by sulforhodamine B assay relative to control; settings: read-out: Activity
NCI-H522 = assay: Growth inhibition of human NCI-H522 cells assessed as cell growth at 1 uM incubated for 48 hrs by sulforhodamine B assay relative to control; settings: read-out: Activity
OVCAR-5 [7] = assay: Growth inhibition of human OVCAR-5 cells assessed as cell growth at 0.01 uM incubated for 48 hrs by sulforhodamine B assay relative to control; settings: read-out: Activity
NCI-H23 = assay: Growth inhibition of human NCI-H23 cells assessed as cell growth at 1 uM incubated for 48 hrs by sulforhodamine B assay relative to control; settings: read-out: Activity
HCC 2998 = assay: Growth inhibition of human HCC 2998 cells incubated for 48 hrs by sulforhodamine B assay
ACHN [8] = assay: Growth inhibition of human ACHN cells assessed as cell growth at 0.01 uM incubated for 48 hrs by sulforhodamine B assay relative to control; settings: read-out: Activity
K562 = assay: Growth inhibition of human K562 cells assessed as cell growth at 0.01 uM incubated for 48 hrs by sulforhodamine B assay relative to control; settings: read-out: Activity
SK-MEL-5 [9] = assay: Growth inhibition of human SK-MEL-5 cells assessed as cell growth at 0.01 uM incubated for 48 hrs by sulforhodamine B assay relative to control; settings: read-out: Activity
LOX IMVI = assay: Growth inhibition of human LOX IMVI cells assessed as cell growth at 0.01 uM incubated for 48 hrs by sulforhodamine B assay relative to control; settings: read-out: Activity
HCT-15 = assay: Growth inhibition of human HCT-15 cells assessed as cell growth at 1 uM incubated for 48 hrs by sulforhodamine B assay relative to control; settings: read-out: Activity
OVCAR-8 [10] = assay: Growth inhibition of human OVCAR-8 cells assessed as cell growth at 0.01 uM incubated for 48 hrs by sulforhodamine B assay relative to control; settings: read-out: Activity
HL-60(TB) = assay: Growth inhibition of human HL-60(TB) cells assessed as cell growth at 0.01 uM incubated for 48 hrs by sulforhodamine B assay relative to control; settings: read-out: Activity
A498 = assay: Growth inhibition of human A498 cells assessed as cell growth at 100 uM incubated for 48 hrs by sulforhodamine B assay relative to control; settings: read-out: Activity
SNB-75 [11] = assay: Growth inhibition of human SNB-75 cells incubated for 48 hrs by sulforhodamine B assay
RXF 393 = assay: Growth inhibition of human RXF 393 cells assessed as cell growth at 1 uM incubated for 48 hrs by sulforhodamine B assay relative to control; settings: read-out: Activity
HT-29 = assay: Growth inhibition of human HT-29 cells incubated for 48 hrs by sulforhodamine B assay
NCI-H460 = assay: Growth inhibition of human NCI-H460 cells incubated for 48 hrs by sulforhodamine B assay
U-251 = assay: Growth inhibition of human U-251 cells assessed as cell growth at 100 uM incubated for 48 hrs by sulforhodamine B assay relative to control; settings: read-out: Activity
SK-OV-3 [12] = assay: Growth inhibition of human SK-OV-3 cells assessed as cell growth at 0.1 uM incubated for 48 hrs by sulforhodamine B assay relative to control; settings: read-out: Activity
Malme-3M [13] = assay: Growth inhibition of human Malme-3M cells assessed as cell growth at 100 uM incubated for 48 hrs by sulforhodamine B assay relative to control; settings: read-out: Activity
ACHN [14] = assay: Growth inhibition of human ACHN cells assessed as cell growth at 100 uM incubated for 48 hrs by sulforhodamine B assay relative to control; settings: read-out: Activity
NCI/ADR-RES = assay: Growth inhibition of human NCI/ADR-RES cells assessed as cell growth at 100 uM incubated for 48 hrs by sulforhodamine B assay relative to control; settings: read-out: Activity
SNB-19 [15] = assay: Growth inhibition of human SNB-19 cells assessed as cell growth at 0.1 uM incubated for 48 hrs by sulforhodamine B assay relative to control; settings: read-out: Activity
SK-OV-3 [16] = assay: Growth inhibition of human SK-OV-3 cells assessed as cell growth at 0.01 uM incubated for 48 hrs by sulforhodamine B assay relative to control; settings: read-out: Activity
[17] = read-out: LC50 (the source's name)
[18] = read-out: pLC50 (the source's name) (converted)

With `CC(=O)Nc1cc(CCl)cc(NC(=O)c2ccc(C(=O)Nc3cccc(NC(=O)CCCN(C)C)c3)cc2)c1` the growth at 100 µM (SNB-19 [1]) was 117%, the growth at 0.1 µM (SNB-75 [2]) was 77% and the growth at 0.1 µM (Malme-3M [3]) was 104%. The growth at 100 µM (SK-MEL-5 [4]) was 75%, the growth at 1 µM (KM12) was 107% and the growth at 1 µM (OVCAR-5 [5]) was 83%. For the same molecule, the growth at 0.01 µM (PC-3) was 104%, the growth at 100 µM (MOLT-4) was 99% and the growth at 1 µM (OVCAR-8 [6]) was 101%. It also gave a GI50 (MDA-MB-468; read-out: GI50) of over 100 µM, a CC50 (MDA-MB-468; [17]) of over 100 µM and a TGI (MDA-MB-468; read-out: TGI) of over 100 µM. For the same molecule, the GI50 (MDA-MB-468; read-out: pGI50 (converted)) was over 100 µM, the CC50 (MDA-MB-468; [18]) was over 100 µM and the TGI (MDA-MB-468; read-out: pTGI) was over 100 µM. For the same molecule, the GI50 (TK-10; read-out: GI50) was over 100 µM, the CC50 (TK-10; [17]) was over 100 µM and the TGI (TK-10; read-out: TGI) was over 100 µM. For the same molecule, the GI50 (TK-10; read-out: pGI50 (converted)) was over 100 µM, the CC50 (TK-10; [18]) was over 100 µM and the TGI (TK-10; read-out: pTGI) was over 100 µM. The growth at 0.01 µM (UACC-257) was 97%, the growth at 1 µM (NCI-H522) was 89% and the growth at 0.01 µM (OVCAR-5 [7]) was 92%. For the same molecule, the growth at 1 µM (NCI-H23) was 93%, the GI50 (HCC 2998; read-out: GI50) was over 100 µM and the CC50 (HCC 2998; [17]) was over 100 µM. For the same molecule, the TGI (HCC 2998; read-out: TGI) was over 100 µM, the GI50 (HCC 2998; read-out: pGI50 (converted)) was over 100 µM and the CC50 (HCC 2998; [18]) was over 100 µM. It also gave a TGI (HCC 2998; read-out: pTGI) of over 100 µM, a growth at 0.01 µM (ACHN [8]) of 105% and a growth at 0.01 µM (K562) of 97%. The growth at 0.01 µM (SK-MEL-5 [9]) was 96%, the growth at 0.01 µM (LOX IMVI) was 96% and the growth at 1 µM (HCT-15) was 90%. For the same molecule, the growth at 0.01 µM (OVCAR-8 [10]) was 102%, the growth at 0.01 µM (HL-60(TB)) was 86% and the growth at 100 µM (A498) was 62%. It also gave a GI50 (SNB-75 [11]; read-out: GI50) of over 100 µM, an LC50 (SNB-75 [11]; read-out: LC50) of over 100 µM and a TGI (SNB-75 [11]; read-out: TGI) of over 100 µM. It also gave a GI50 (SNB-75 [11]; read-out: pGI50 (converted)) of over 100 µM, an LC50 (SNB-75 [11]; read-out: pLC50 (converted)) of over 100 µM and a TGI (SNB-75 [11]; read-out: pTGI) of over 100 µM. It also gave a growth at 1 µM (RXF 393) of 88%, a GI50 (HT-29; read-out: GI50) of over 100 µM and a CC50 (HT-29; [17]) of over 100 µM. For the same molecule, the TGI (HT-29; read-out: TGI) was over 100 µM, the GI50 (HT-29; read-out: pGI50 (converted)) was over 100 µM and the CC50 (HT-29; [18]) was over 100 µM. The TGI (HT-29; read-out: pTGI) was over 100 µM, the GI50 (NCI-H460; read-out: GI50) was over 100 µM and the CC50 (NCI-H460; [17]) was over 100 µM. It also gave a TGI (NCI-H460; read-out: TGI) of over 100 µM, a GI50 (NCI-H460; read-out: pGI50 (converted)) of over 100 µM and a CC50 (NCI-H460; [18]) of over 100 µM. For the same molecule, the TGI (NCI-H460; read-out: pTGI) was over 100 µM, the growth at 100 µM (U-251) was 95% and the growth at 0.1 µM (SK-OV-3 [12]) was 103%. It also gave a growth at 100 µM (Malme-3M [13]) of 80%, a growth at 100 µM (ACHN [14]) of 104% and a growth at 100 µM (NCI/ADR-RES) of 85%. For the same molecule, the growth at 0.1 µM (SNB-19 [15]) was 104% and the growth at 0.01 µM (SK-OV-3 [16]) was 106%.
